Drawing on patent US9340590B2 (priority 2011, dated 2016), this text covers IC50 for six compounds.

Holding throughout (test): cell-based
Test [1] deals with hNav1.7 (Homo sapiens, UniProt Q15858). It counts as cell-based. Particulars: IonWorks Quattro, use-dependent block, hNav1.7; read-out: IWQ Use Nav1.7. In general terms: The patch-clamp technique gives a direct electrical read-out from membranes.
Test [2] concerns the target hNav1.5 (Homo sapiens, UniProt Q14524). Particulars: IonWorks Quattro, use-dependent block, hNav1.5; read-out: IWQ Use Nav1.5.
The target in test [3] is hNav1.3 (Homo sapiens, UniProt Q9NY46). Particulars: IonWorks Quattro, use-dependent block, hNav1.3; read-out: IWQ Use Nav1.3.

Positions of bridges follow the written chain, without caps; N, C: chain ends. Non-standard residues stand in square brackets, D forms with d. Residues, ends and D or L forms follow the SMILES beside them. Nle = CCCC[C@H](N)C(=O)O; Nva = CCC[C@H](N)C(=O)O; Abu = CC[C@H](N)C(=O)O; Aib = CC(C)(N)C(=O)O; βAla = NCCC(=O)O Where only a bound is given, the exact number is not on record here.

Sequence of hNav1.5 (Q14524 whole entry, looked up): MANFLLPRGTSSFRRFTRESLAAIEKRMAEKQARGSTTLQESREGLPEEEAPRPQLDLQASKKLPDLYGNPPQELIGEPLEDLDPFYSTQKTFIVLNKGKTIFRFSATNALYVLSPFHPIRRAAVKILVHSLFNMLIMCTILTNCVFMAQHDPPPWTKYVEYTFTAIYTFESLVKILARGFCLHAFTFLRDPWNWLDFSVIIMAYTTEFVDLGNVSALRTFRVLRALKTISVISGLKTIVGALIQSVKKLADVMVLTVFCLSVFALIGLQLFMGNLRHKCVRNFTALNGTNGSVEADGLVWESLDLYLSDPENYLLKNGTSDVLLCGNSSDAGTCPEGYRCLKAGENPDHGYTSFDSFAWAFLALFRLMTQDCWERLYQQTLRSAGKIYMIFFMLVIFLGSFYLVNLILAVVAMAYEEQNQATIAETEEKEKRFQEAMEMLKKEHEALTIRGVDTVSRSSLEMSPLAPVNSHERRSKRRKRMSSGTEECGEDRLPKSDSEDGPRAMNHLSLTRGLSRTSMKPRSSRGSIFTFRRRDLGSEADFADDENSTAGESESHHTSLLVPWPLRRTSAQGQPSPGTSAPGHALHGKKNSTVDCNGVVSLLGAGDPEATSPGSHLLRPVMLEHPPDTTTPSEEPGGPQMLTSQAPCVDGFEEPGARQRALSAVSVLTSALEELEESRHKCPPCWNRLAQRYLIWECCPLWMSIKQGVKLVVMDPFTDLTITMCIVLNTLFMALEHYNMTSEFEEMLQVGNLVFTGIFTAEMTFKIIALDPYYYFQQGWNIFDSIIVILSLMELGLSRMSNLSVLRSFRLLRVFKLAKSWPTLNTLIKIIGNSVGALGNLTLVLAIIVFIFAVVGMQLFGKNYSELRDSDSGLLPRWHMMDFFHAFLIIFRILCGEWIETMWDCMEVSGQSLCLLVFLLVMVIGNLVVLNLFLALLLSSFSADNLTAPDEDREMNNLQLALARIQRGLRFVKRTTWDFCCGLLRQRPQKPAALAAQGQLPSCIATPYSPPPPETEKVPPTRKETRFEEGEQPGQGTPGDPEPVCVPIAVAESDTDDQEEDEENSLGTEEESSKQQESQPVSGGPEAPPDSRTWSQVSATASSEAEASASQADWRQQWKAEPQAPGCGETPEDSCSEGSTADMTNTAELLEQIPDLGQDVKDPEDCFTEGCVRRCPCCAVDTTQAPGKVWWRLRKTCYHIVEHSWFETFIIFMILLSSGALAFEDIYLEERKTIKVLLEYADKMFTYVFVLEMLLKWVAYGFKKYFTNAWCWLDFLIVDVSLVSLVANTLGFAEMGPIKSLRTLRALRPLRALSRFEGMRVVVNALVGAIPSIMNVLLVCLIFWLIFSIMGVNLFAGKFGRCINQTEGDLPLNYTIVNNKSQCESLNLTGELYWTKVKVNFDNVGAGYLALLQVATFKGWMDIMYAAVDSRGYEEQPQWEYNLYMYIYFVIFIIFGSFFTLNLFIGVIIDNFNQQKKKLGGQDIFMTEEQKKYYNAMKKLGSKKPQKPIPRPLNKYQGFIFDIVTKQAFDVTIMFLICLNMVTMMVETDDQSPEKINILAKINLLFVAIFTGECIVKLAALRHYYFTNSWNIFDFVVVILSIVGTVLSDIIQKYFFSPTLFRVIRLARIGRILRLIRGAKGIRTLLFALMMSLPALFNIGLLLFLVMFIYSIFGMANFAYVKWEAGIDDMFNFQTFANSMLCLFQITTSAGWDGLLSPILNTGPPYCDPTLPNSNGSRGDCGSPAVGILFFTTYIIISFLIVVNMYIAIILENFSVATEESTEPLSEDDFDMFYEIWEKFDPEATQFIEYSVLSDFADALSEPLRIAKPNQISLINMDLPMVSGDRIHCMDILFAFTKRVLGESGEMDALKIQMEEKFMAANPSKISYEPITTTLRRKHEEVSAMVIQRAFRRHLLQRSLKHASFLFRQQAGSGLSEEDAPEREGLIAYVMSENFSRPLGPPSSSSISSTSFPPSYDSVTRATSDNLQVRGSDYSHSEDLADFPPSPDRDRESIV
Sequence of hNav1.3 (Q9NY46 whole entry, looked up): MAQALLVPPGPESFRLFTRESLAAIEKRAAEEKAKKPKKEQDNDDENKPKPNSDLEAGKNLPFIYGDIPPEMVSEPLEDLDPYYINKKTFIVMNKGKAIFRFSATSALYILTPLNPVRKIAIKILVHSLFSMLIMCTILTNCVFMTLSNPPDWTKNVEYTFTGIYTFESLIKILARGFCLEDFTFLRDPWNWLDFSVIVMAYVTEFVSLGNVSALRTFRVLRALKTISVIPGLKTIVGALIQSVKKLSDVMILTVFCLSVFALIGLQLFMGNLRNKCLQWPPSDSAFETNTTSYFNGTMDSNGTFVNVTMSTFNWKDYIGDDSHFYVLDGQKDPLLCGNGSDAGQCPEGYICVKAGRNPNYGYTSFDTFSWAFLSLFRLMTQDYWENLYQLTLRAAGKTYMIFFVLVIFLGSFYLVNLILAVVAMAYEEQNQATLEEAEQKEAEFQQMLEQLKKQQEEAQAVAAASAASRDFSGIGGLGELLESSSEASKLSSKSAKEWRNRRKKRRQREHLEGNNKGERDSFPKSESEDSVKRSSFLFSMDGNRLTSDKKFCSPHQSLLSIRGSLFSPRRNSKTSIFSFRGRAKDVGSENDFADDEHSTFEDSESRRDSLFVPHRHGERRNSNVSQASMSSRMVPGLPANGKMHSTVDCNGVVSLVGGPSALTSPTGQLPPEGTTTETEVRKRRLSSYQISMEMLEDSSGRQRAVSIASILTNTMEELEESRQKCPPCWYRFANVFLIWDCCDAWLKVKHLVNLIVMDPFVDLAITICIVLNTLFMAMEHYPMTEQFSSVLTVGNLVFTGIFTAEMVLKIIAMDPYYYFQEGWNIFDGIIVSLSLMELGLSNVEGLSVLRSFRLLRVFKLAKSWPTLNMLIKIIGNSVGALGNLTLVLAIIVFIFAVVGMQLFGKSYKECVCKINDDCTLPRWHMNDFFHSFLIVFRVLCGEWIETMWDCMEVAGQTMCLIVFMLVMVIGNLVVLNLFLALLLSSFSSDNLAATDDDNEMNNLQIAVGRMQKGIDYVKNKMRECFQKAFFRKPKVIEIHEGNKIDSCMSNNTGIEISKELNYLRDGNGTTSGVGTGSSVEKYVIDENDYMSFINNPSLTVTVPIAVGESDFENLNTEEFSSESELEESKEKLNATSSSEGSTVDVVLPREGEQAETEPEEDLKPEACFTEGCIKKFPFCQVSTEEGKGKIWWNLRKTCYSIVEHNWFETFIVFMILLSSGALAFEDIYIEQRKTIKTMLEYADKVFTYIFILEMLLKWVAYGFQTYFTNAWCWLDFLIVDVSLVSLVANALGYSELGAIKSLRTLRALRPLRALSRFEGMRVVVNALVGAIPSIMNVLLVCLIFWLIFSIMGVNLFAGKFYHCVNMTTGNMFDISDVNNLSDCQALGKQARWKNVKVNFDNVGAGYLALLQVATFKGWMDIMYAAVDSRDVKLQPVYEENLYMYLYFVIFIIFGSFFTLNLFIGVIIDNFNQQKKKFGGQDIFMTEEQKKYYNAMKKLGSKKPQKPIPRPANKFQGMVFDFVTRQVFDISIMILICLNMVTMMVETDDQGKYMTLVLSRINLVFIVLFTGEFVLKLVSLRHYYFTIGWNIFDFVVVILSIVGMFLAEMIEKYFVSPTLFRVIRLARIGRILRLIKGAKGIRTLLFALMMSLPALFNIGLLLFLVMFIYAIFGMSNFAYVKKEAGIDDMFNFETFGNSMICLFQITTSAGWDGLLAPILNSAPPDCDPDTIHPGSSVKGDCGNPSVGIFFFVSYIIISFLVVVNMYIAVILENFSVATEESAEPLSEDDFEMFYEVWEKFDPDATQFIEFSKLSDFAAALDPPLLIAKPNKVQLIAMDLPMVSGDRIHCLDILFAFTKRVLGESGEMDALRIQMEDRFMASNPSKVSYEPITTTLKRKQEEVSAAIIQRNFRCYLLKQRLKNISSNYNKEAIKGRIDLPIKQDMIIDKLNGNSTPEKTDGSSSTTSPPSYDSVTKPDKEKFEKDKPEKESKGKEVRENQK

Turning to `CC[C@H](C)[C@@H]1NC(=O)[C@@H]2CSSC[C@@H]3NC(=O)[C@H](C(C)C)NC(=O)[C@H](CC(C)C)NC(=O)[C@H](CC(N)=O)NC(=O)[C@@H]4CCCN4C(=O)[C@H](CCCNC(=N)N)NC(=O)[C@H](CSSC[C@H](NC(=O)[C@@H](N)CC(=O)O)C(=O)N[C@@H](CC(C)C)C(=O)NCC(=O)N[C@@H](C)C(=O)N[C@@H](CC(C)C)C(=O)N[C@@H](CCCNC(=N)N)C(=O)N[C@@H](CCCCN)C(=O)N2)NC(=O)[C@H](CSSC[C@@H](C(=O)N[C@@H](CCCCN)C(=O)N[C@@H](Cc2ccc(O)cc2)C(=O)N[C@H](C(=O)N[C@@H](Cc2ccccc2)C(=O)O)C(C)C)NC(=O)[C@H](Cc2c[nH]c4ccccc24)NC(=O)[C@H](CC(N)=O)NC(=O)[C@H](Cc2c[nH]cn2)NC(=O)[C@H]([C@@H](C)O)NC(=O)[C@H](CCCNC(=N)N)NC(=O)[C@H](CO)NC3=O)NC(=O)[C@H](CCCCN)NC(=O)[C@H](CC(=O)O)NC(=O)[C@H](CC(N)=O)NC(=O)[C@H](CC(=O)O)NC(=O)[C@@H]2CCCN2C1=O` [compound 601] (H-DCLGALRKCIPDNDKCCRPNLVCSRTHNWCKYVF-OH; disulfide 2-17, 9-23, 16-30), the IC50 in test [1] was > 5000 nM; in test [2], 10000 nM; in test [3] it was 2600 nM.
On the same counts, the results for `CC[C@H](C)[C@@H]1NC(=O)[C@@H]2CSSC[C@@H]3NC(=O)[C@H](C(C)C)NC(=O)[C@H](CC(C)C)NC(=O)[C@H](CC(N)=O)NC(=O)[C@@H]4CCCN4C(=O)[C@H](CCCNC(=N)N)NC(=O)[C@H](CSSC[C@H](NC(=O)[C@@H](N)CC(=O)O)C(=O)N[C@@H](CC(C)C)C(=O)NCC(=O)NCCC(=O)N[C@@H](Cc4ccccc4)C(=O)N[C@@H](CCCNC(=N)N)C(=O)N[C@@H](CCCCN)C(=O)N2)NC(=O)[C@H](CSSC[C@@H](C(=O)N[C@@H](CCCCN)C(=O)N[C@@H](Cc2ccc(O)cc2)C(=O)N[C@H](C(=O)N[C@@H](Cc2ccccc2)C(N)=O)C(C)C)NC(=O)[C@H](Cc2c[nH]c4ccccc24)NC(=O)[C@H](CCCCN)NC(=O)[C@H](Cc2c[nH]cn2)NC(=O)[C@H]([C@@H](C)O)NC(=O)[C@H](CCCNC(=N)N)NC(=O)[C@H](CO)NC3=O)NC(=O)[C@H](CCCCN)NC(=O)[C@H](CC(=O)O)NC(=O)[C@H](CC(N)=O)NC(=O)[C@H](CC(=O)O)NC(=O)[C@@H]2CCCN2C1=O` [compound 603] (H-DCLG[βAla]FRKCIPDNDKCCRPNLVCSRTHKWCKYVF-NH2; disulfide 2-17, 9-23, 16-30) are 15300 nM, 9500 nM and 11800 nM.
With `CC[C@H](C)[C@@H]1NC(=O)[C@@H]2CSSC[C@@H]3NC(=O)[C@H](C(C)C)NC(=O)[C@H](CC(C)C)NC(=O)[C@H](CC(N)=O)NC(=O)[C@@H]4CCCN4C(=O)[C@H](CCCNC(=N)N)NC(=O)[C@H](CSSC[C@H](NC(=O)[C@@H](N)CC(=O)O)C(=O)N[C@@H](CC(C)C)C(=O)NCC(=O)NC(C)(C)C(=O)N[C@@H](Cc4ccccc4)C(=O)N[C@@H](CCCNC(=N)N)C(=O)N[C@@H](CCCCN)C(=O)N2)NC(=O)[C@H](CSSC[C@@H](C(=O)N[C@@H](CCCCN)C(=O)N[C@@H](Cc2ccc(O)cc2)C(=O)N[C@H](C(=O)N[C@@H](Cc2ccccc2)C(N)=O)C(C)C)NC(=O)[C@H](Cc2c[nH]c4ccccc24)NC(=O)[C@H](CCCCN)NC(=O)[C@H](Cc2c[nH]cn2)NC(=O)[C@H]([C@@H](C)O)NC(=O)[C@H](CCCNC(=N)N)NC(=O)[C@H](CO)NC3=O)NC(=O)[C@H](CCCCN)NC(=O)[C@H](CC(=O)O)NC(=O)[C@H](CC(N)=O)NC(=O)[C@H](CC(=O)O)NC(=O)[C@@H]2CCCN2C1=O` [compound 604] (H-DCLG[Aib]FRKCIPDNDKCCRPNLVCSRTHKWCKYVF-NH2; disulfide 2-17, 9-23, 16-30), the IC50 worked out at 440 nM in test [1], 6400 nM in test [2] and 610 nM in test [3].
For the compound `CC[C@@H]1NC(=O)CNC(=O)[C@H](CC(C)C)NC(=O)[C@@H](NC(=O)[C@@H](N)CC(=O)O)CSSC[C@@H]2NC(=O)[C@@H]3CSSC[C@@H](C(=O)N[C@@H](CCCCN)C(=O)N[C@@H](Cc4ccc(O)cc4)C(=O)N[C@H](C(=O)N[C@@H](Cc4ccccc4)C(N)=O)C(C)C)NC(=O)[C@H](Cc4c[nH]c5ccccc45)NC(=O)[C@H](CCCCN)NC(=O)[C@H](Cc4c[nH]cn4)NC(=O)[C@H]([C@@H](C)O)NC(=O)[C@H](CCCNC(=N)N)NC(=O)[C@H](CO)NC(=O)[C@H](CSSC[C@H](NC(=O)[C@H](CCCCN)NC(=O)[C@H](CCCNC(=N)N)NC(=O)[C@H](Cc4ccccc4)NC1=O)C(=O)N[C@@H]([C@@H](C)CC)C(=O)N1CCC[C@H]1C(=O)N[C@@H](CC(=O)O)C(=O)N[C@@H](CC(N)=O)C(=O)N[C@@H](CC(=O)O)C(=O)N[C@@H](CCCCN)C(=O)N3)NC(=O)[C@H](C(C)C)NC(=O)[C@H](CC(C)C)NC(=O)[C@H](CC(N)=O)NC(=O)[C@@H]1CCCN1C(=O)[C@H](CCCNC(=N)N)NC2=O` [compound 605] (H-DCLG[Abu]FRKCIPDNDKCCRPNLVCSRTHKWCKYVF-NH2; disulfide 2-17, 9-23, 16-30), the IC50 in test [1] amounted to 170 nM; in test [2], 9500 nM; in test [3] it was 360 nM.
For the compound `CCC[C@@H]1NC(=O)CNC(=O)[C@H](CC(C)C)NC(=O)[C@@H](NC(=O)[C@@H](N)CC(=O)O)CSSC[C@@H]2NC(=O)[C@@H]3CSSC[C@@H](C(=O)N[C@@H](CCCCN)C(=O)N[C@@H](Cc4ccc(O)cc4)C(=O)N[C@H](C(=O)N[C@@H](Cc4ccccc4)C(N)=O)C(C)C)NC(=O)[C@H](Cc4c[nH]c5ccccc45)NC(=O)[C@H](CCCCN)NC(=O)[C@H](Cc4c[nH]cn4)NC(=O)[C@H]([C@@H](C)O)NC(=O)[C@H](CCCNC(=N)N)NC(=O)[C@H](CO)NC(=O)[C@H](CSSC[C@H](NC(=O)[C@H](CCCCN)NC(=O)[C@H](CCCNC(=N)N)NC(=O)[C@H](Cc4ccccc4)NC1=O)C(=O)N[C@@H]([C@@H](C)CC)C(=O)N1CCC[C@H]1C(=O)N[C@@H](CC(=O)O)C(=O)N[C@@H](CC(N)=O)C(=O)N[C@@H](CC(=O)O)C(=O)N[C@@H](CCCCN)C(=O)N3)NC(=O)[C@H](C(C)C)NC(=O)[C@H](CC(C)C)NC(=O)[C@H](CC(N)=O)NC(=O)[C@@H]1CCCN1C(=O)[C@H](CCCNC(=N)N)NC2=O` [compound 606] (H-DCLG[Nva]FRKCIPDNDKCCRPNLVCSRTHKWCKYVF-NH2; disulfide 2-17, 9-23, 16-30), the IC50 in test [1] came out at 84 nM; in test [2], 7800 nM; in test [3], 170 nM.
`CCCC[C@@H]1NC(=O)CNC(=O)[C@H](CC(C)C)NC(=O)[C@@H](NC(=O)[C@@H](N)CC(=O)O)CSSC[C@@H]2NC(=O)[C@@H]3CSSC[C@@H](C(=O)N[C@@H](CCCCN)C(=O)N[C@@H](Cc4ccc(O)cc4)C(=O)N[C@H](C(=O)N[C@@H](Cc4ccccc4)C(N)=O)C(C)C)NC(=O)[C@H](Cc4c[nH]c5ccccc45)NC(=O)[C@H](CCCCN)NC(=O)[C@H](Cc4c[nH]cn4)NC(=O)[C@H]([C@@H](C)O)NC(=O)[C@H](CCCNC(=N)N)NC(=O)[C@H](CO)NC(=O)[C@H](CSSC[C@H](NC(=O)[C@H](CCCCN)NC(=O)[C@H](CCCNC(=N)N)NC(=O)[C@H](Cc4ccccc4)NC1=O)C(=O)N[C@@H]([C@@H](C)CC)C(=O)N1CCC[C@H]1C(=O)N[C@@H](CC(=O)O)C(=O)N[C@@H](CC(N)=O)C(=O)N[C@@H](CC(=O)O)C(=O)N[C@@H](CCCCN)C(=O)N3)NC(=O)[C@H](C(C)C)NC(=O)[C@H](CC(C)C)NC(=O)[C@H](CC(N)=O)NC(=O)[C@@H]1CCCN1C(=O)[C@H](CCCNC(=N)N)NC2=O` [compound 607] (H-DCLG[Nle]FRKCIPDNDKCCRPNLVCSRTHKWCKYVF-NH2; disulfide 2-17, 9-23, 16-30): the IC50 was 16 nM in test [1], 11300 nM in test [2] and 67 nM in test [3].
